{"source": "patent US7790771B1", "about": "“Use of tosylchloramide(s) for treating disease of the skin, mucous membrane, organs and tissues” (Engelhard Arzneimittel GmbH & Co., priority 1999, dated 2010)", "experiment": "Treatments of Example 5 repeated with corticoid-free bases containing only chloramine T", "type": "in vivo", "details": "powder added to the bath water", "protocol": "Instead of adhesive salve Volon A with added chloramine T, a normal cooling salve was prepared—“unguentum leniens” which merely contained chloramine T-powder (2% by weight) as active ingredient, but no corticoid. The success described under Example 5 was the same."}
{"smiles": "Cc1ccc(S(=O)(=O)NCl)cc1.[Na]", "note": "[chloramine T, tosylchloramide-sodium]", "values": [{"measurement": "treatment results compared with Example 5", "result": "comparable results"}]}
